Where “and” joins values, the source holds several entries; their conditions need not be identical. Equal values may be shown once.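 Growth conditions: 96-well plates. Treatment: test compound, 48 hours, 5 concentrations. Analysis: linear interpolation between bracketing concentrations; unreached endpoints set to highest concentration. GI50: concentration for 50% inhibition of growth. TGI denotes the concentration required for complete inhibition of growth.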 Some results are limits rather than exact numbers.

Test systems include DMS 273 small cell lung; KM20L2 colon; MCF7 breast; MOLT-4 leukemia; OVCAR-8 ovarian; SF-295 CNS; SK-MEL-28 melanoma; SK-OV-3 ovarian; SNB-75 CNS.
What all share (test): inhibition of tumour cell growth, NCI panel, 48 h

On to `N/C(=N\N=C\c1cc2c(cc1Cl)OCO2)NO`, for which the TGI in the test with DMS 273 small cell lung is over 77.8 µM; in the test on KM20L2 colon it was over 100 µM; in the test with MCF7 breast, over 100 µM; in the test on MOLT-4 leukemia, over 100 µM; with OVCAR-8 ovarian it was over 100 µM; in the test on SF-295 CNS it was 74.8 µM. Also, the TGI with SK-MEL-28 melanoma was over 100 µM; with SK-OV-3 ovarian, over 92.5 µM; in the test on SNB-75 CNS it was over 100 µM.
On to `CC(=O)Nc1ccc(-c2nnc(SCC(=O)Nc3cccc([N+](=O)[O-])c3)o2)cc1`, for which the TGI is 23.5 µM in the test on DMS 273 small cell lung; 37.4 µM in the test on KM20L2 colon; over 100 µM in the test on MOLT-4 leukemia; 33.4 µM in the test with OVCAR-8 ovarian; 32 µM with SF-295 CNS; 33.3 µM with SK-MEL-28 melanoma. Also, the results for the TGI in the test with SK-OV-3 ovarian and in the test on SNB-75 CNS were 24.5 µM and 32.9 µM, respectively.
As to `C/C(=N\NC(=O)c1cccnc1)c1cccc(/C(C)=N/NC(=O)c2cccnc2)n1.CC(=O)[O-].CC(=O)[O-].[Zn+2]`, the GI50 was 2.15 µM in the test with DMS 273 small cell lung, 29.4 µM in the test on SK-MEL-28 melanoma and 24.7 µM in the test on SNB-75 CNS. Further, the TGI in the test on DMS 273 small cell lung was 98.1 µM; with KM20L2 colon, over 100 µM; with MOLT-4 leukemia, 11.4 µM; in the test on OVCAR-8 ovarian, over 39.4 µM; in the test on SF-295 CNS, over 30.2 µM; with SK-MEL-28 melanoma it was over 100 µM. In addition, the TGI with SK-OV-3 ovarian is over 100 µM; with SNB-75 CNS, 98.2 µM.
As for `N#Cc1ccc(Nc2cnc3ccc(N)cc3n2)cc1`, the TGI in the test on DMS 273 small cell lung, in the test on KM20L2 colon, with MOLT-4 leukemia, with OVCAR-8 ovarian, in the test on SF-295 CNS and in the test on SK-MEL-28 melanoma was over 100 µM throughout. Besides, the TGI with SK-OV-3 ovarian and in the test on SNB-75 CNS was over 100 µM each time.
Regarding `COC(=O)[C@@]12OC[C@]34C([C@@H](O)C1O)[C@@]1(C)CC(=O)C(O)=C(C)C1C[C@H]3OC(=O)[C@H](OC(=O)/C=C(/c1ccccc1)C(F)(F)F)[C@H]42` (stereo partly drawn), the TGI in the test with DMS 273 small cell lung is 4.87 µM; in the test with KM20L2 colon, 14 µM; in the test with MOLT-4 leukemia it was 13.8 µM; in the test with OVCAR-8 ovarian, over 25 µM; in the test with SF-295 CNS, 12.7 µM; in the test on SK-MEL-28 melanoma, 15.9 µM. For the same compound, the values for the TGI in the test with SK-OV-3 ovarian and in the test on SNB-75 CNS were over 25 µM and 18.6 µM, respectively.
Consider `C=C1C(=O)O[C@@H]2OC3(C)CCC4C(C)CCC1C42OO3` (stereo partly drawn), for which the TGI in the test with DMS 273 small cell lung was 14.2 µM and 13.2 µM; in the test with KM20L2 colon it was 24.1 µM; in the test on MCF7 breast, 11.5 µM and 15 µM; with MOLT-4 leukemia, 5.96 µM and 5.53 µM; in the test with OVCAR-8 ovarian, 16.2 µM and 11.7 µM; with SF-295 CNS, 25.1 µM and 13.4 µM. The TGI was 25.1 µM and 23.9 µM in the test with SK-MEL-28 melanoma; 34.7 µM in the test with SK-OV-3 ovarian; 25.9 µM and 7.74 µM in the test on SNB-75 CNS. Further, the GI50 with KM20L2 colon is 11.1 µM; in the test with MCF7 breast, 2.2 µM; in the test on MOLT-4 leukemia, 2.23 µM; in the test with OVCAR-8 ovarian, 3.47 µM; in the test on SF-295 CNS, 11.7 µM; in the test with SNB-75 CNS it was 13.1 µM.
As to `COc1cc2cc3c4c(cc(OC)c(OC)c4c2cc1OC)CCN3C(=O)N(C)C`, the TGI in the test with DMS 273 small cell lung, in the test with KM20L2 colon, in the test with MOLT-4 leukemia, in the test on OVCAR-8 ovarian, with SF-295 CNS and with SK-MEL-28 melanoma was over 100 µM in each case. Further, the TGI with SK-OV-3 ovarian and with SNB-75 CNS was over 100 µM throughout.
Take `C=CC[N+](CCO)(CCO)CCCCCCCCCCCCCCCCCC`: the TGI is 5.83 µM in the test with DMS 273 small cell lung; 17.1 µM with KM20L2 colon; over 44.8 µM in the test with MCF7 breast; 3.85 µM in the test with MOLT-4 leukemia; 59.5 µM in the test on OVCAR-8 ovarian; 21.5 µM in the test on SF-295 CNS. The TGI with SK-MEL-28 melanoma was determined as 28 µM; with SK-OV-3 ovarian it was 27.9 µM; with SNB-75 CNS, 7.55 µM.
For the compound `Nc1nn(CC(O)CO)c(=O)s1` (stereo not drawn), the TGI was over 100 µM in the test with DMS 273 small cell lung; over 100 µM in the test with KM20L2 colon; over 100 µM in the test with MOLT-4 leukemia; over 100 µM in the test on OVCAR-8 ovarian; over 100 µM in the test on SF-295 CNS; 9.86 µM in the test with SK-MEL-28 melanoma. Further, the TGI in the test on SK-OV-3 ovarian and with SNB-75 CNS was over 100 µM throughout.
As for `C[C@H](CN1CC(=O)NC(=O)C1)N1CC(=O)NC(=O)C1`, the TGI in the test on DMS 273 small cell lung was over 100 µM; in the test on KM20L2 colon, over 100 µM; in the test on MCF7 breast, over 100 µM; with MOLT-4 leukemia, over 47.5 µM; in the test with OVCAR-8 ovarian, over 100 µM; with SF-295 CNS, over 100 µM. Moreover, the TGI in the test with SK-MEL-28 melanoma, with SK-OV-3 ovarian and in the test on SNB-75 CNS was over 100 µM each time.

(Values after PubChem BioAssay (NCI).)
